# Measured values published in patent publication US20240417428A1, “POLYPEPTIDE FOR INHIBITING TRPM8 AND USE THEREOF” (ZHEJIANG UNIVERSITY, priority 2021, published 2024).
# Where a SMILES comes first, the peptide text is derived from it.
# Experiments:
# TRPM8 = TRPM8 (Mus musculus, UniProt Q8R4D5); assay: Calcium imaging of primary cultured DRG neurons from oxaliplatin-treated mice; type: cell-based; design: endogenous in cells; host or cells: primary cultured dorsal root ganglion neurons from saline- or oxaliplatin-treated mice; details: 10 μM DeC-1.2, DRG neurons of oxaliplatin treated mice
# TRPM8, sequence (Q8R4D5 whole entry): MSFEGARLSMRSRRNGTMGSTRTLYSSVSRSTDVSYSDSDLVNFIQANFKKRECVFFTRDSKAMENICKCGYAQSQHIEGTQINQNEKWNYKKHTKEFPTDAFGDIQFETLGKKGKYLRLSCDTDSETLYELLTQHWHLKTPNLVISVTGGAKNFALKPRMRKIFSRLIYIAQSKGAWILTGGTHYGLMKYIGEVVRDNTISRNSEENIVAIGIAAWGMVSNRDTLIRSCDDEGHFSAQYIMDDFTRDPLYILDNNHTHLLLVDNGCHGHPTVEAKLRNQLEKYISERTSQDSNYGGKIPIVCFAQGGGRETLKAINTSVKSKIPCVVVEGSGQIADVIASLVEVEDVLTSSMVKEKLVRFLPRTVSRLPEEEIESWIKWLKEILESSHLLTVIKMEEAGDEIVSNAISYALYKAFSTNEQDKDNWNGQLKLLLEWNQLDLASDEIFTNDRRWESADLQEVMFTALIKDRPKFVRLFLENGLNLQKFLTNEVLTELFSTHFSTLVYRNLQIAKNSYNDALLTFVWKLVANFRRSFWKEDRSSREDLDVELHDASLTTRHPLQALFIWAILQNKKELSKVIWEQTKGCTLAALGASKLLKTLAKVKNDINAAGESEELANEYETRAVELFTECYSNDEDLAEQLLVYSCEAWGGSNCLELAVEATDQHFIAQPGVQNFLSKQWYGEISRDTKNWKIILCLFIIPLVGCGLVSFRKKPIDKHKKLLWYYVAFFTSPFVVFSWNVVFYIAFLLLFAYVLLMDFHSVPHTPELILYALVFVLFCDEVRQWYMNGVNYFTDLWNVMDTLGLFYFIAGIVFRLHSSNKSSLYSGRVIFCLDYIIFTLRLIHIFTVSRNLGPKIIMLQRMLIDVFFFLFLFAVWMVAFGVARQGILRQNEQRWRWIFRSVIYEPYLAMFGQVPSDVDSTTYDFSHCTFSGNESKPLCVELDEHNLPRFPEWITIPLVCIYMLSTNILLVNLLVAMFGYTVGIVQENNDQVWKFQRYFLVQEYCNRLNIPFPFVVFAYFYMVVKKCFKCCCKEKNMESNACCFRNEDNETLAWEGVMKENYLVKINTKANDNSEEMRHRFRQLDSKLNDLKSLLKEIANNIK
# Protocol: Mice was deeply anaesthetized, decapitated and blood was removed, DRG tissue was dissected off quickly and placed in ice-cold PBS solution. After washing the blood, digestive enzyme (Collagenase A 20 mg/100 ml, Dispase II 300 mg/100 ml dissolved in PBS) was added and DRG was digested at 37° C. for 1 hour. The samples were centrifuged at 500 g for 5 min and the digested tissue was collected. When the enzyme solution was removed, an appropriate amount of DMEM medium (containing 10% FBS, 1× Pen/Strep) was added, and the single cell suspension was prepared by mechanical trituration. The samples were centrifuged at 500 g for 10 min. […]
# The primary-cultured DRG neurons were washed with a extracellular solution (ECS, 140 mM NaCl, 5 mM KCl, 1 mM MgCl2, 1.8 mM CaCl2), 10 mM Glucose, 15 mM HEPES, pH=7.4) then incubated in calcium dye incubation solution (2 μM […], 0.05% Pluronic F-127 in ECS) for 30 min. The cell images were continuously and alternately excited by a high-speed continuous monochromatic light source under the excitation wavelength of 340 nm and 380 nm, and recorded in full vision under 20× object lens by Visiview software Intracellular fluorescence intensity changes were continuously recorded at 0.5 fps via a high-speed scanning camera Flash4.0LT. The ratio of fluorescence signal at 340 nm/380 nm represents the intensity of calcium signal. […]
# TRPM2 = molecular target: T1, TRPM2 (Homo sapiens, UniProt O94759); assay: Electrophysiological recording, ligand activation of TRPM2; type: cell-based
# T1 construct: expressed in transfected cells; host or cells: HEK293T
# T1 sequence (O94759 whole entry): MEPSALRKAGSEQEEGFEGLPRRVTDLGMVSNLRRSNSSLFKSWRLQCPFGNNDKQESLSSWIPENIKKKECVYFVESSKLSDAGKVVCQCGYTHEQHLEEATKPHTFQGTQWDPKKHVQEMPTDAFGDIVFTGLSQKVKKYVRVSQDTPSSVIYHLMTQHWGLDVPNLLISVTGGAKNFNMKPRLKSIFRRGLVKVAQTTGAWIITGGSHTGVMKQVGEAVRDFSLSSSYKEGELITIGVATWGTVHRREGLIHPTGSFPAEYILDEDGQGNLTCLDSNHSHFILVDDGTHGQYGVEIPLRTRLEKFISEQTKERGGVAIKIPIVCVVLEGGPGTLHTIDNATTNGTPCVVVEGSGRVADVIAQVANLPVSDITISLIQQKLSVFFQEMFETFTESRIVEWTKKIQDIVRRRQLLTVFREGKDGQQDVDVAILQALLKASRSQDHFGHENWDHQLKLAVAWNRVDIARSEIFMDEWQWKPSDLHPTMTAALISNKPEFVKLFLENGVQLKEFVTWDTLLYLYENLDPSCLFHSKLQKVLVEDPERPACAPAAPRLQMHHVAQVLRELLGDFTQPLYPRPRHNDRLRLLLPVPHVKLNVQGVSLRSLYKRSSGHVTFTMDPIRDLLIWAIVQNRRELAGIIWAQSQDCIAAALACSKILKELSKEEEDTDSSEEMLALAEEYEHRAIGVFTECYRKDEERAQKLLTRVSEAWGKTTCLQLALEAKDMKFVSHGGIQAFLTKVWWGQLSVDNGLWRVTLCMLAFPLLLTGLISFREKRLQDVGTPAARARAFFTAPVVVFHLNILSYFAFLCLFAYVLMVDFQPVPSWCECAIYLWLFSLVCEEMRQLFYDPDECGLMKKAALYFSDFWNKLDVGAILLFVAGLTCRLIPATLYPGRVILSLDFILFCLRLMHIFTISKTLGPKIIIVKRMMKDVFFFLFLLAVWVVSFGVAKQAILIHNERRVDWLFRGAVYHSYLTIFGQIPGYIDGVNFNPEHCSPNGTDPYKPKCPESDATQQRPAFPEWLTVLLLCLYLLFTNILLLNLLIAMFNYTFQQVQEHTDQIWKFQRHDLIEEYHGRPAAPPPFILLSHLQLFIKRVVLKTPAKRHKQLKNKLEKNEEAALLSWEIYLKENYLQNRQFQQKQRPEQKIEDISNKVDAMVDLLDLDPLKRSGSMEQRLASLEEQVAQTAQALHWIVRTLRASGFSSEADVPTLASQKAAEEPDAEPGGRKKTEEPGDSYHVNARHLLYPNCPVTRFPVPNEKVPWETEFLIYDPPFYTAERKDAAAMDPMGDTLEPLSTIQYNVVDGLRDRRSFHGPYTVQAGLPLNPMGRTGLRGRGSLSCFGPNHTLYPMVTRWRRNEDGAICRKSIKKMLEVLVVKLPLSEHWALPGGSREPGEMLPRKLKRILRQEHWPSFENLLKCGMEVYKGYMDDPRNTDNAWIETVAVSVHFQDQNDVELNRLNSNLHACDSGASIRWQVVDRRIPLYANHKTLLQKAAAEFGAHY
# Protocol: HEK293T cells were cultured in Dulbecco's modified Eagle culture medium under a 37° C., 5% CO2 environment, 10% fetal bovine serum, penicillin (100 U/mL), and streptomycin ([…]) was needed to add into the culture medium. Transient transfection was conducted by using Lipo 2000 (Invitrogen) transfection kit and following the instruction manual.
# Electrophysiological experiment recordings were performed on the cells within 24˜48 h of transient transfections. Specifically, single channel electrophysiological recordings were performed within 8 h after transfection.
# Measurement of the cell currents was respectively performed in the whole-cell recording mode, inside-out recording mode or outside-out recording mode with a HEKA EPC10 amplifier. In the whole cell electrophysiological recordings, glass microelectrodes made of borosilicate material were fire-polished to a original electrode resistance of about 3-6 MΩ. Serial resistance was compensated by 60%. The whole cell electrophysiological recordings were performed at ±80 mV. For single channel electrophysiological recordings, glass microelectrodes were fire-polished to a higher resistance of 6-8 MΩ2. Current signal was sampled at 10 kHz and filtered at 2.9 kHz. Membrane potential of the cell membrane would be clamped at +80 mV. All electrophysiological recordings were performed at room temperature (22° C.) (the maximum variation is 1° C.). […]
structure (smiles),measurement,setting,value
"C[C@@H]1NC(=O)[C@H](CCCNC(=N)N)NC(=O)[C@H](CC(=O)O)NC(=O)[C@H](CCCNC(=N)N)NC(=O)[C@H](CCCNC(=N)N)NC(=O)[C@@H](N)CSSC[C@@H](C(=O)O)NC(=O)[C@H](CCCNC(=N)N)NC(=O)[C@H](CCC(N)=O)NC(=O)[C@H](CCCNC(=N)N)NC(=O)[C@H](Cc2ccc(O)cc2)NC(=O)[C@H](Cc2c[nH]cn2)NC(=O)[C@H](CCCNC(=N)N)NC1=O [DeC-1.2, CRRDRARHYRQRC] (HELM PEPTIDE1{C.R.R.D.R.A.R.H.Y.R.Q.R.C}$PEPTIDE1,PEPTIDE1,1:R3-13:R3$$$V2.0; N-terminus and C-terminus assumed)",amplitude of calcium influx induced by menthol,TRPM8,significantly inhibit
same,percentage of positive reaction cells in response to menthol,TRPM8,significantly inhibit
same,IC50,TRPM2,> 100 µM
same,block of ligand activation of TRPM2,TRPM2; DeC-1.2 up to 100 μM,not blocked
